Results taken from the NIST ThermoML archive (doi:10.1016/j.fluid.2016.10.026).

Conditions: for surface tension liquid-gas: Drop volume; for kinematic viscosity / speed of sound / mass density: Liquid; for kinematic viscosity: Capillary tube (Ostwald / Ubbelohde) method; for speed of sound: Frequency=3 MHz, Sing-around technique in a fixed-path interferometer; for mass density: Vibrating tube method

CC(=O)c1cccs1 [2-acetylthiophene]
Conditions	surface tension liquid-gas [mN/m]
278.15 K	45.41
280.65 K	45.14
283.15 K	44.83
285.65 K	44.58
288.15 K	44.31
290.65 K	44.01
293.15 K	43.73
295.65 K	43.46
298.15 K	43.16
300.65 K	42.86
303.15 K	42.59
305.65 K	42.31
308.15 K	42.03
310.65 K	41.72
313.15 K	41.43

Conditions	kinematic viscosity [m2/s]	mass density [kg/m3]	speed of sound [m/s]
278.15 K, 101 kPa	3.7e-06	1185.43	1538.3
280.65 K, 101 kPa	3.44e-06	1183.04	1529.7
283.15 K, 100 kPa	–	1180.61	–
283.15 K, 101 kPa	3.21e-06	1180.64	1521.2
283.15 K, 2000 kPa	–	1181.78	–
283.15 K, 5000 kPa	–	1183.44	–
283.15 K, 7000 kPa	–	1184.54	–
283.15 K, 10000 kPa	–	1186.17	–
283.15 K, 15000 kPa	–	1188.81	–
283.15 K, 20000 kPa	–	1191.4	–
283.15 K, 25000 kPa	–	1193.92	–
283.15 K, 30000 kPa	–	1196.37	–
283.15 K, 35000 kPa	–	1198.77	–
283.15 K, 40000 kPa	–	1201.11	–
283.15 K, 45000 kPa	–	1203.39	–
285.65 K, 101 kPa	3e-06	1178.25	1512.7
288.15 K, 100 kPa	–	1175.97	–
288.15 K, 101 kPa	2.81e-06	1175.86	1503.9
288.15 K, 2000 kPa	–	1177.04	–
288.15 K, 5000 kPa	–	1178.73	–
288.15 K, 7000 kPa	–	1179.85	–
288.15 K, 10000 kPa	–	1181.52	–
288.15 K, 15000 kPa	–	1184.21	–
288.15 K, 20000 kPa	–	1186.85	–
288.15 K, 25000 kPa	–	1189.43	–
288.15 K, 30000 kPa	–	1191.93	–
288.15 K, 35000 kPa	–	1194.37	–
288.15 K, 40000 kPa	–	1196.76	–
288.15 K, 45000 kPa	–	1199.09	–
290.65 K, 101 kPa	2.64e-06	1173.47	1495
293.15 K, 100 kPa	–	1171	–
293.15 K, 101 kPa	2.51e-06	1171.07	1486.3
293.15 K, 2000 kPa	–	1172.28	–
293.15 K, 5000 kPa	–	1174.02	–
293.15 K, 7000 kPa	–	1175.16	–
293.15 K, 10000 kPa	–	1176.85	–
293.15 K, 15000 kPa	–	1179.61	–
293.15 K, 20000 kPa	–	1182.3	–
293.15 K, 25000 kPa	–	1184.93	–
293.15 K, 30000 kPa	–	1187.48	–
293.15 K, 35000 kPa	–	1189.98	–
293.15 K, 40000 kPa	–	1192.41	–
293.15 K, 45000 kPa	–	1194.78	–
293.15 K, 50000 kPa	–	1197.1	–
293.15 K, 55000 kPa	–	1199.35	–
293.15 K, 60000 kPa	–	1201.56	–
293.15 K, 65000 kPa	–	1203.71	–
295.65 K, 101 kPa	2.35e-06	1168.68	1477.8
298.15 K, 100 kPa	–	1166.24	–
298.15 K, 101 kPa	2.22e-06	1166.29	1469
298.15 K, 2000 kPa	–	1167.52	–
298.15 K, 5000 kPa	–	1169.28	–
298.15 K, 7000 kPa	–	1170.46	–
298.15 K, 10000 kPa	–	1172.2	–
298.15 K, 15000 kPa	–	1175.02	–
298.15 K, 20000 kPa	–	1177.77	–
298.15 K, 25000 kPa	–	1180.44	–
298.15 K, 30000 kPa	–	1183.06	–
298.15 K, 35000 kPa	–	1185.59	–
298.15 K, 40000 kPa	–	1188.08	–
298.15 K, 45000 kPa	–	1190.5	–
298.15 K, 50000 kPa	–	1192.87	–
298.15 K, 55000 kPa	–	1195.17	–
298.15 K, 60000 kPa	–	1197.42	–
298.15 K, 65000 kPa	–	1199.61	–
300.65 K, 101 kPa	2.1e-06	1163.91	1460.5
303.15 K, 100 kPa	–	1161.59	–
303.15 K, 101 kPa	1.99e-06	1161.52	1451.8
303.15 K, 2000 kPa	–	1162.77	–
303.15 K, 5000 kPa	–	1164.6	–
303.15 K, 7000 kPa	–	1165.79	–
303.15 K, 10000 kPa	–	1167.56	–
303.15 K, 15000 kPa	–	1170.45	–
303.15 K, 20000 kPa	–	1173.26	–
303.15 K, 25000 kPa	–	1175.98	–
303.15 K, 30000 kPa	–	1178.65	–
303.15 K, 35000 kPa	–	1181.25	–
303.15 K, 40000 kPa	–	1183.77	–
303.15 K, 45000 kPa	–	1186.24	–
303.15 K, 50000 kPa	–	1188.64	–
303.15 K, 55000 kPa	–	1190.99	–
303.15 K, 60000 kPa	–	1193.27	–
303.15 K, 65000 kPa	–	1195.5	–
305.65 K, 101 kPa	1.9e-06	1159.13	1443.2
308.15 K, 100 kPa	–	1156.84	–
308.15 K, 101 kPa	1.81e-06	1156.74	1434.8
308.15 K, 2000 kPa	–	1158.03	–
308.15 K, 5000 kPa	–	1159.89	–
308.15 K, 7000 kPa	–	1161.11	–
308.15 K, 10000 kPa	–	1162.92	–
308.15 K, 15000 kPa	–	1165.87	–
308.15 K, 20000 kPa	–	1168.75	–
308.15 K, 25000 kPa	–	1171.53	–
308.15 K, 30000 kPa	–	1174.24	–
308.15 K, 35000 kPa	–	1176.89	–
308.15 K, 40000 kPa	–	1179.46	–
308.15 K, 45000 kPa	–	1181.98	–
308.15 K, 50000 kPa	–	1184.43	–
308.15 K, 55000 kPa	–	1186.82	–
308.15 K, 60000 kPa	–	1189.15	–
308.15 K, 65000 kPa	–	1191.41	–
310.65 K, 101 kPa	1.72e-06	1154.35	1426.1
313.15 K, 100 kPa	–	1152.05	–
313.15 K, 101 kPa	1.65e-06	1151.96	1417.5
313.15 K, 2000 kPa	–	1153.3	–
313.15 K, 5000 kPa	–	1155.19	–
313.15 K, 7000 kPa	–	1156.45	–
313.15 K, 10000 kPa	–	1158.29	–
313.15 K, 15000 kPa	–	1161.33	–
313.15 K, 20000 kPa	–	1164.23	–
